Source: patent US20020028809A1 (SUNTORY LIMITED, priority 1999, published 2002)

Assays:
[1] = biological target: T1, α1β1γδ subtype of nicotinic acetylcholine receptors (Rattus norvegicus, UniProt P18916+P25108+P25109+P25110); test: Binding assays at α1β1γδ subtype of nicotinic acetylcholine receptors ([3H]-α-bungarotoxin, rat muscle extract)
T1 construct: Native receptor, no construct: "Triton X100 (2% w/v) was added
Text: (§1) Methods for evaluating binding capabilities of the compounds at nicotinic acetylcholine receptors are different by subtypes of receptors. Binding capabilities of the compounds at α4β2 nicotinic acetylcholine receptors are examined using rat brain membrane obtained from whole homogenized brain, and determining the inhibiting rate of the compounds against [^3H]-cytisine binding to said brain membrane. Furthermore, the binding capabilities of the compounds at α1β1γδ nicotinic acetylcholine receptors are examined using homogenized rat muscle, and determining the inhibiting rate of the compounds against [^3H]-α-bungarotoxin binding to said muscle homogenate.
Binding Assays at α1β1γδ Subtype of Nicotinic Acetylcholine Receptors
Affinity of the compounds of the present invention to α1βγδ subtype of nicotinic acetylcholine receptors was measured by the following method, which was modified method described by Garcha H. S., Thomas P., Spivak C.
(1) Preparation of Rat Skeletal Muscles Containing α1β1γδ Subtype of Nicotinic Acetylcholine Receptors
The substantially same animals described in the Biological Experiment 1 were used.
Isolation of α1β1γδ subtype of nicotinic acetylcholine receptors was performed as follow. That is, rat posterior skeletal muscles were isolated just after sacrificed by decapitation, washed with ice-cooled saline solution and then frozen at −80° C. with liquid nitrogen and stored till using. After thawing the frozen muscles, tissue was homogenized (40% w/v) with buffer solution [2.5 mM of sodium phosphate buffer (pH:7.2), 90 mM of NaCl, 2 mM of KCl, 1 mM of EDTA, 2 mM of benzamidine, 0.1 mM of benzethonium chloride, […], 0.01% of sodium azide] in Waring blender (Waring blender 34BL97; WARING PRODUCTS DIVISION DYNAMICS CORPORATION OF AMERICA) for 60 seconds. The homogenate were centrifuged under 20,000×G for 60 minutes at 4° C. The supernatant was separated and the resulting pellet was added to the same buffer (1.5 ml/g wet weight), and homogenized under the same conditions. Triton X100 (2% w/v) was added and the mixture was stirred for 3 hours at 4° C. The centrifugation at 100,000×G for 60 minutes at 4° C. yielded the rat muscle extract as supernatant. This was stored at 4° C. for up to 4 weeks, and used for binding assays at receptors.
(2) Experiments of α1β1γδSubtype of Nicotinic Acetylcholine Receptors Binding
Receptors binding experiments were performed as follow. That is, the extract of rat muscle containing 600-900 μg of protein was added to test tubes containing test compounds and incubated for 15 minutes at 37° C. Then, to this mixture was added 1 nM of [^3H]-α-bungarotoxin (α-Bgt) and further incubated for 2 hours. The samples were isolated by vacuum filtration onto Whatman GF/B filters, which were prerinsed with 0.5% polyethylenimine just prior to sample filtration, using Brandel multi manifold cell harvester. The filters were rapidly rinsed with washing solution (10 mM of KH2PO4, 150 mM of NaCl, pH 7.2, room temperature) (5×1 ml). The filters were counted in 3 ml of clearsol I (Nacalai Tesque Inc.). Determination of nonspecific binding was incubated in the presence of 1 μM α-Bgt.
In the receptor binding experiments, said buffer solution was added for adjusting the final concentration of BSA to be 0.05%.
Analyses of the experimental results were conducted by the same way as described in the Biological Experiment 1.

[2] = biological target: T2, human α4β2 subtype of nicotinic acetylcholine receptors (Homo sapiens, UniProt P17787+P43681); test: Agonist activities at human α4β2 subtype of nicotinic acetylcholine receptors expressed in Xenopus oocytes (membrane potential holding method); assay type: cell-based; conditions: for Emax at 100 µM: read-out: Agonist activity: control % by response at 100 μM of the test compound
T2 construct: expressed in transfected cells; host or cells: Xenopus laevis oocytes injected with 50 ng each of α4 and β2 cRNA (pSP64 polyA vector)
Protocol: Agonist effect in human α4β2 subtype of nicotinic acetylcholine receptors are examined by using human nicotinic acetylcholine receptors prepared in oocytes of Xenopus laevis, which is injected with cRNA from the corresponding cloning cDNA of human α4 and β2 subunits of nicotinic acetylcholine receptors, and to measure the expression of electric response by adding the test compounds to perfusion solution by means of membrane potential holding method.
Agonist Activities at Human α4β2 Subtype of Nicotinic Acetylcholine Receptors
(1) Preparation of cRNA of Human α4β2 Subtype of Nicotinic Acetylcholine Receptors
Obtained hnACh-R α4 cDNA and hnACh-R β2 cDNA were inserted to the cRNA expression vector (pSP64 polyA) having SP6 RNA promoter to construct hnACh-R α4/pSP64 polyA and hnACh-R β2/pSP64 polyA, respectively. After cutting from expression vector by restriction enzyme (EcoRI), transcription was performed by affecting SP6 RNA polymerase in the presence of cap analogues to obtain hnACh-R α4 cRNA and hnACh-R β2 cRNA, respectively.
(2) Expression of Human α4β2 Subtype Nicotinic Acetylcholine Receptors in Xenopus oocytes
Oocytes were purchased from Kitanihonseibutsukyohzai Co., Ltd., which were already enucleated from Xenopus laevis, and used in this experiment.
The oocytes were treated with collagenase (Sigma type I; 1 mg/ml) in calcium-free modified Birth's solution (88 mM of NaCl, 1 mM of KCl, 2.4 mM of NaHCO3, 0.82 mM of MgSO4, 15 mM of HEPES, pH 7.6) under gently stirring at room temperature for 90 minutes, and washed out the enzyme from the tissue. Then, oocytes were separated from ovarian follicle by tweezers, and isolated oocytes were placed in antibiotics containing modified Birth's solution (88 mM of NaCl, 1 mM of KCl, 2.4 mM of NaHCO3, 0.82 mM of MgSO4, 15 mM of HEPES, pH 7.6, and 0.1 v/v% of mixture solution containing of penicillin and streptomycin for incubation; Sigma Co.). […] In oocytes, heterogeneous quintuple [(α4)2(β2)3] was composed by translation of injected cRNAs, and ion channel receptors were constructed on cell membrane.
(3) Agonist Activities at Human α4β2 Subtype of Nicotinic Acetylcholine Receptors
Recordings of response at human α4β2 subtype of nicotinic acetylcholine receptors by means of membrane potential holding method were performed as follow. […] Test compounds were added to the perfusion solution, and recorded the peak strength of induced inward current. In order to normalize the response of test compounds, the response with acetylcholine (Ach) were recorded before and after application of the test compounds. Generally in the oocytes just after isolated, the response of intrinsic muscarinic acetylcholine receptors, which is inward electric current caused by activation of calcium dependence chloride ion channels with increase of the intracellular calcium concentration by stimulation of receptors, is observed. […] Therefore, the responses observed in oocytes with injection of hnACh-R α4 cRNA and hnACh-R β2 cRNA, i.e., the inward current induced by the intracellular influx of sodium ion according to the stimulation of receptors, would be the freshly observed responses of human α4β2 subtype nicotinic acetylcholine receptors.

[3] = biological target: T3, α4β2 subtype of nicotinic acetylcholine receptors (Rattus norvegicus, UniProt P09483+P12390); test: Binding assays at α4β2 subtype of nicotinic acetylcholine receptors ([3H]-cytisine, rat brain membrane)
T3 construct: examined using rat brain membrane obtained from whole homogenized brain; from tissue; host or cells: whole brain of Fischer-344 male rats, membrane pellet
Text: as §1
Binding assays at α4β2 Subtype of Nicotinic Acetylcholine Receptors
(1) Preparation of Rat Brain Membrane Containing α4β2 Subtype of Nicotinic Acetylcholine Receptors
Rats were housed in the breeding cage controlled of the room temperature at 23±1° C., and the humidity of 55±5% for 1 to 4 weeks. Rats (3 to 4 rats per a cage) were housed with lights on for 12 hours daily (from 7:00 to 19:00), and allowed free access to food and water.
Preparation of rat brain membrane containing α4β2 subtype of nicotinic acetylcholine receptors was performed as follow. That is, rat brains were isolated just after sacrificed by decapitation, washed with ice-cooled saline solution and then frozen at −80° C. with liquid nitrogen and stored till using. After thawing the frozen brain, the brain was homogenized in 10 volumes of ice-cooled buffer solution (50 mM of Tris-HCl, 120 mM of NaCl, 5 mM of KCl, 1 mM of MgCl2, 2mM of CaCl2; pH 7.4; 4° C.) using homogenizer (HG30, Hitachi Kohki Ltd.) for 30 seconds, and the homogenate were centrifuged under 1,000×G for 10 minutes at 4° C. The resulting supernatant was separated and the pellet was homogenized again with half volume of aforementioned prior buffer solution and centrifuged under the same conditions. Combined supernatant was further centrifuged under 40,000×G for 20 minutes at 4° C. The pellet was suspended in buffer solution and used for binding assays at receptors.
(2) Experiments of α4β2 Subtype of Nicotinic Acetylcholine Receptors Binding
Suspensions of membrane pellets containing 400-600 μg of protein were added to test tubes containing test compounds and [^3H]-cytisine (2 nM) in a final volume of 200 μl and incubated for 75 minutes in ice-cooled bath. The samples were isolated by vacuum filtration onto Whatman GF/B filters, which were prerinsed with 0.5% polyethylenimine just prior to sample filtration, using Brandel multi manifold cell harvester. The filters were rapidly washed with buffer solution (3×1 ml). The filters were counted in 3 ml of clearsol I (Nacalai Tesque Inc.).
Analyses of the experimental results were conducted using the Accufit Competition Program (Beckman Ltd.).

[4] = read-out: control % of [3H]-α-Bgt binding

T1 sequence (P25108 21-457): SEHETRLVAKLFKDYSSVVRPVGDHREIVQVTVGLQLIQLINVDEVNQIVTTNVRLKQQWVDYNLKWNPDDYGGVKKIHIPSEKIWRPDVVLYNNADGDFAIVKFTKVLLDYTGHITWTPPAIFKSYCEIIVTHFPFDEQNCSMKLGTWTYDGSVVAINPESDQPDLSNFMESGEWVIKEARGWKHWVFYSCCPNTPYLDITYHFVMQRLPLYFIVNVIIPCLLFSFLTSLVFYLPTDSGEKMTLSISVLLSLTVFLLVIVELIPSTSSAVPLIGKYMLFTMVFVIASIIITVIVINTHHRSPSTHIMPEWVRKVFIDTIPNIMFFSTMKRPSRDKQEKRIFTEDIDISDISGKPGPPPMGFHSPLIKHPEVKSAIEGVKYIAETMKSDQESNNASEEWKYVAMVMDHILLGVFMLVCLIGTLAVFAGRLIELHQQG
T1 sequence (P25110 22-517): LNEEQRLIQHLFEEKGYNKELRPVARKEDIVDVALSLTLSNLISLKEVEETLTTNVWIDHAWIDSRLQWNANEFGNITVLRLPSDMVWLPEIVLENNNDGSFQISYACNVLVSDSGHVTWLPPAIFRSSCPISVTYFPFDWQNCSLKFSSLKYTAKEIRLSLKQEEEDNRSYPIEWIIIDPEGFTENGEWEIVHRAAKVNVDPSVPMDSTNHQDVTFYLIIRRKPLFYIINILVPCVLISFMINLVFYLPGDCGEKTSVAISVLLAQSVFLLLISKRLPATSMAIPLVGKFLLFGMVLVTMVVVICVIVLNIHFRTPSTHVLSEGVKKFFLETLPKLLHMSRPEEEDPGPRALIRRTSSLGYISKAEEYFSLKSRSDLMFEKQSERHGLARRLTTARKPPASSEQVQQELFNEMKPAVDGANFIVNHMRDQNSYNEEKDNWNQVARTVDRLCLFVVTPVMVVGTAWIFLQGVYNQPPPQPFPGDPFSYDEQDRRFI
T1 sequence (P25109 24-501): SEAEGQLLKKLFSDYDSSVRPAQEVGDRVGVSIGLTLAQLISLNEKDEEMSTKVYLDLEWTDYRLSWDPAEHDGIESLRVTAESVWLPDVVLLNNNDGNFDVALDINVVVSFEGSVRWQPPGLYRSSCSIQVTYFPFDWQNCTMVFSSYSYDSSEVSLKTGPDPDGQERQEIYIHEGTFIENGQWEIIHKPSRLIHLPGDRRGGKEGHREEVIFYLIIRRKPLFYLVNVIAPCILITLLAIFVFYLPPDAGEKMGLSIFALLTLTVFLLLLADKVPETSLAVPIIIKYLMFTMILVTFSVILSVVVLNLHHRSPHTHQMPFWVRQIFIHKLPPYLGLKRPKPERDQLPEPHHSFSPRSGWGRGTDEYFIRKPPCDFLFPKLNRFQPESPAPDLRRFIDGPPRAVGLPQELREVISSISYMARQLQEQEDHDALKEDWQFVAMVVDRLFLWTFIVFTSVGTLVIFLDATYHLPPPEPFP
T3 sequence (P09483 31-630): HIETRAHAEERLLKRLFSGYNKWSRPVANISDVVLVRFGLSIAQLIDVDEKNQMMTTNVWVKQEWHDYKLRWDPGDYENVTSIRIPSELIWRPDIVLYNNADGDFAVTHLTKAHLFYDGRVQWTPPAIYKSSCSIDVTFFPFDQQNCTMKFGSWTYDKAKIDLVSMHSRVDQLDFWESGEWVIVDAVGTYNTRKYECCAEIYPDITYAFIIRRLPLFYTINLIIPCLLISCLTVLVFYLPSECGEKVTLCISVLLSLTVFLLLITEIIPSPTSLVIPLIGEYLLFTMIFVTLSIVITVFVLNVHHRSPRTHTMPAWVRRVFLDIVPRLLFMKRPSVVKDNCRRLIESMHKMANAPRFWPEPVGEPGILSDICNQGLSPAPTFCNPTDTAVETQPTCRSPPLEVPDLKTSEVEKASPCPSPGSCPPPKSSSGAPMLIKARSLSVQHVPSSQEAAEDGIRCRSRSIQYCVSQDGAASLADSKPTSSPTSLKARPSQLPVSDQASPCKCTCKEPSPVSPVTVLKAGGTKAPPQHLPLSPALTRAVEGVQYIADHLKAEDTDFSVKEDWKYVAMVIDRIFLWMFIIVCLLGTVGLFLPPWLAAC
T3 sequence (P12390 25-500): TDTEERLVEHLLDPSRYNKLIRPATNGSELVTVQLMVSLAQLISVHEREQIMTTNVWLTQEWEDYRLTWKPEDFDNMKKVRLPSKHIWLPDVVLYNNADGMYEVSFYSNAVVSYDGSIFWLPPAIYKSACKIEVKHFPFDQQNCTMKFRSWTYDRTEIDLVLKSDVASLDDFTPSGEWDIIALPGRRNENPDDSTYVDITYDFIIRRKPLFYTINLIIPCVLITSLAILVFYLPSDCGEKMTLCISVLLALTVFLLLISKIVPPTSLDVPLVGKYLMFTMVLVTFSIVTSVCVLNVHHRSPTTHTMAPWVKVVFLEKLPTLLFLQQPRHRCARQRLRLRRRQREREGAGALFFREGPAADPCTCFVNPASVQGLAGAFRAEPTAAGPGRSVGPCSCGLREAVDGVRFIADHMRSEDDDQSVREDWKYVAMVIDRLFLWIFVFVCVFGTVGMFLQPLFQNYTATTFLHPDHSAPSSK
T2 sequence (P43681 29-627 limits assumed): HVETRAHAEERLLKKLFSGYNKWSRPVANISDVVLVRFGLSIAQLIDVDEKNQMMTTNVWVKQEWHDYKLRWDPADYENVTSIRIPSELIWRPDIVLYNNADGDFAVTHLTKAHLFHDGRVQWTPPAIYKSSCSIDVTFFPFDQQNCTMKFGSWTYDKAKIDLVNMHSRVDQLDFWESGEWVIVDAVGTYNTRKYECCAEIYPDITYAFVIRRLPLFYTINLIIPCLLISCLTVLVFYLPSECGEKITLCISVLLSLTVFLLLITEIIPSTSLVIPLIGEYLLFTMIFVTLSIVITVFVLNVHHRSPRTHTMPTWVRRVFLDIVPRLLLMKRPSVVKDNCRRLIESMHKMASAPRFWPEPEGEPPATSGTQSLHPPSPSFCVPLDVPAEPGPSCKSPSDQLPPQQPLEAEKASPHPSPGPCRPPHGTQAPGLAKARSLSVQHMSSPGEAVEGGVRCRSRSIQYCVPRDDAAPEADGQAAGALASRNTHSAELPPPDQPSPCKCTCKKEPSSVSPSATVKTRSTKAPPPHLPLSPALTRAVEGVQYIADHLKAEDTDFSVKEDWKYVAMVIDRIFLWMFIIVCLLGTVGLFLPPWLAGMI
T2 sequence (P17787 26-502): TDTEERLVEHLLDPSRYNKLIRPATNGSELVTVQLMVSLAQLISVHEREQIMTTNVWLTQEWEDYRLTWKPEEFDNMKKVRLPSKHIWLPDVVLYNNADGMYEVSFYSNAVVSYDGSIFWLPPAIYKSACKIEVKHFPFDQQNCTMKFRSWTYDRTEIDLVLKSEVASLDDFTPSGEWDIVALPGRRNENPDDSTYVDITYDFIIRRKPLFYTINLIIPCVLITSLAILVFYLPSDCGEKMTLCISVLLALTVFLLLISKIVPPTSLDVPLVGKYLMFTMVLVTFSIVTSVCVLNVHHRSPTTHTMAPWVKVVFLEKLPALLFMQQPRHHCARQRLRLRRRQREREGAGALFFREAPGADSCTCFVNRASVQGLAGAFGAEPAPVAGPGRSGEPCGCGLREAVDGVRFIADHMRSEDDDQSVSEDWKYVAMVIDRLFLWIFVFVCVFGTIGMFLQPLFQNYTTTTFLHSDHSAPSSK

Structure (SMILES)	remaining activity at 100 µM [1, 4]	remaining activity at 1000 µM [1, 4]	EC50 [2]	Ki [3]	Ki [1]	Emax at 100 µM [2]
N=C1OCCCN1Cc1ccc(Cl)nc1 [Compound 16, 3-(6-chloro-3-pyridyl)methyl-2-imino-3,4,5,6-tetrahydro-2H-1,3-oxazine]	14%	-2%	1.5 µM	0.00065 µM	–	–
Cc1csc(=N)n1Cc1ccc(Br)nc1 [Compound 19, 3-(6-bromo-3-pyridyl)methyl-2-imino-4-methyl-2,3-dihydrothiazole]	–	–	–	0.0105 µM	11.7 µM	3%
N=C1OCCN1Cc1ccc(Cl)nc1 [Compound 28, 3-(6-chloro-3-pyridyl)methyl-2-iminooxazolidine]	–	–	15.5 µM	0.00277 µM	39.8 µM	–
NC1=NCCCN1Cc1ccc(Cl)nc1 [Compound 29, 1-(6-Chloro-3-pyridyl)methyl-2-imino-1,2,3,4,5,6-hexahydropyrimidine]	–	–	0.5 µM	0.00025 µM	7.02 µM	–
Nc1nccn1Cc1cnc(Cl)s1 [Compound 50, 2-amino-1-(2-chloro-5-thiazolyl)methylimidazole]	–	–	92.4 µM	0.0271 µM	818 µM	–
Cc1ccc(Cn2ccnc2N)cn1 [Compound 56, 2-amino-i-(6-methyl-3-pyridyl)methylimidazole]	–	–	–	0.165 µM	545 µM	11%
N=c1sccn1Cc1ccc(Cl)cc1 [Compound 57, 3-(4-chlorobenzyl)-2-imino-2,3-dihydrothiazole]	–	–	–	0.0119 µM	13 µM	23%
Nc1nccn1Cc1c[nH]c2ncccc12 [Compound 59, 2-amino-i-(7-aza-3-indolyl)methylimidazole]	–	–	–	0.0502 µM	1230 µM	21%
N=c1sccn1Cc1ccc([N+](=O)[O-])cc1 [Compound 62, 2-imino-3-(4-nitrobenzyl)-2,3-dihydrothiazole]	–	–	325 µM	0.0291 µM	79.8 µM	–
